Assay results reported in patent EP0908457B1, “3-(1,2-benzisothiazol- and isoxazol-5-Y1)-2,4(1H,3H)-pyrimidinedione or thione and 3-(1,2-benzisothiazol- and isoxazol-5-y1)-4(3H)-pyrimidinone or thione herbicidal agents” (BASF AKTIENGESELLSCHAFT, priority 1997, dated 1999).

Assays:
[1] = system: Echinochloa oryzoides (Ard.) Fritsch.; experiment: Preemergence weed control under flooded paddy conditions, ECHORC (Watergrass (Calif.)); type: in vivo; settings: preemergence, flooded paddy, rated three to four weeks after treatment; further: meaning of each grade not given here
[2] = system: Cyperus iria; experiment: Preemergence weed control under flooded paddy conditions, CYPIR (Rice Flatsedge); type: in vivo; settings: preemergence, flooded paddy, rated three to four weeks after treatment; further: meaning of each grade not given here
[3] = system: Cyperus serotinus, Rottb.; experiment: Preemergence weed control under flooded paddy conditions, CYPSE (Flatsedge); type: in vivo; settings: preemergence, rated three to four weeks after treatment; further: meaning of each grade not given here
[4] = system: Monochoria vaginalis, Presl.; experiment: Preemergence weed control under flooded paddy conditions, MOOVA (Monochoria); type: in vivo; settings: preemergence, flooded paddy, rated three to four weeks after treatment; further: meaning of each grade not given here
[5] = system: Sagittaria pygmaea, L.; experiment: Preemergence weed control under flooded paddy conditions, SAGPY (Arrowhead (Pygmaea)); type: in vivo; settings: preemergence, flooded paddy, rated three to four weeks after treatment; further: meaning of each grade not given here
[6] = system: Echinochloa oryzoides (Ard.) Fritsch.; experiment: Postemergence weed control under flooded paddy conditions, ECHORC (Watergrass (Calif.)); type: in vivo; settings: rated three to four weeks after treatment
[7] = system: Cyperus iria; experiment: Postemergence weed control under flooded paddy conditions, CYPIR (Rice Flatsedge); type: in vivo; settings: rated three to four weeks after treatment
[8] = system: Cyperus serotinus, Rottb.; experiment: Postemergence weed control under flooded paddy conditions, CYPSE (Flatsedge); type: in vivo; settings: rated three to four weeks after treatment
[9] = system: Monochoria vaginalis, Presl.; experiment: Postemergence weed control under flooded paddy conditions, MOOVA (Monochoria); type: in vivo; settings: rated three to four weeks after treatment
[10] = system: Sagittaria pygmaea, L.; experiment: Postemergence weed control under flooded paddy conditions, SAGPY (Arrowhead (Pygmaea)); type: in vivo; settings: rated three to four weeks after treatment
[11] = system: Oryza sativa, (L.) Tebonnet; experiment: Rice tolerance to post-transplant applications under flooded paddy conditions (Example 187), ORYSAT (Rice, Tebonnet); settings: rated three to four weeks after treatment
[12] = system: Oryza sativa, (L.) Tebonnet; experiment: Rice tolerance to post-transplant applications under flooded paddy conditions (Example 188), ORYSAT (Rice, Tebonnet); settings: rated three to four weeks after treatment

COC(=O)COc1cc(C)c(C)cc1-c1nsc2ccc(-n3c(=O)cc(C(F)(F)F)n(C)c3=O)cc12 [Example 12, Methyl {{6-{5-[3,6-dihydro-3-methyl-4-(trifluoromethyl)-2,6-dioxo-1(2H)-pyrimidinyl]-1,2-benzisothiazol-3-yl}-3,4-xylyl}oxy}acetate]
8.0: herbicidal effect rating, CYPSE ([3]; 0.1250 kg/ha) | herbicidal effect rating, ORYSAT (rice tolerance) ([11]; 0.2500 kg/ha)
9.0: herbicidal effect rating, ECHORC ([1]; 0.0313 kg/ha) | herbicidal effect rating, ECHORC ([1]; 0.0625 kg/ha) | herbicidal effect rating, ECHORC ([1]; 0.1250 kg/ha) | herbicidal effect rating, ECHORC ([1]; 0.2500 kg/ha) | herbicidal effect rating, ECHORC ([1]; 0.5000 kg/ha) | herbicidal effect rating, CYPIR ([2]; 0.0313 kg/ha) | herbicidal effect rating, CYPIR ([2]; 0.0625 kg/ha) | herbicidal effect rating, CYPIR ([2]; 0.1250 kg/ha) | herbicidal effect rating, CYPIR ([2]; 0.2500 kg/ha) | herbicidal effect rating, CYPIR ([2]; 0.5000 kg/ha) | herbicidal effect rating, MOOVA ([4]; 0.0313 kg/ha) | herbicidal effect rating, MOOVA ([4]; 0.0625 kg/ha) | herbicidal effect rating, MOOVA ([4]; 0.1250 kg/ha) | herbicidal effect rating, MOOVA ([4]; 0.2500 kg/ha) | herbicidal effect rating, MOOVA ([4]; 0.5000 kg/ha) | herbicidal effect rating, SAGPY ([5]; 0.2500 kg/ha) | herbicidal effect rating, SAGPY ([5]; 0.5000 kg/ha) | herbicidal effect rating, ECHORC ([6]; Rate 0.2500 kg/ha) | herbicidal effect rating, ECHORC ([6]; Rate 0.5000 kg/ha) | herbicidal effect rating, CYPIR ([7]; Rate 0.0313 kg/ha) | herbicidal effect rating, CYPIR ([7]; Rate 0.0625 kg/ha) | herbicidal effect rating, CYPIR ([7]; Rate 0.1250 kg/ha) | herbicidal effect rating, CYPIR ([7]; Rate 0.2500 kg/ha) | herbicidal effect rating, CYPIR ([7]; Rate 0.5000 kg/ha) | herbicidal effect rating, MOOVA ([9]; Rate 0.0313 kg/ha) | herbicidal effect rating, MOOVA ([9]; Rate 0.0625 kg/ha) | herbicidal effect rating, MOOVA ([9]; Rate 0.1250 kg/ha) | herbicidal effect rating, MOOVA ([9]; Rate 0.2500 kg/ha) | herbicidal effect rating, MOOVA ([9]; Rate 0.5000 kg/ha) | herbicidal effect rating, SAGPY ([10]; Rate 0.5000 kg/ha) | herbicidal effect rating, ORYSAT (rice tolerance) ([11]; 0.5000 kg/ha)
6.0: herbicidal effect rating, CYPSE ([3]; 0.0313 kg/ha) | herbicidal effect rating, ECHORC ([6]; Rate 0.1250 kg/ha)
7.0: herbicidal effect rating, CYPSE ([3]; 0.0625 kg/ha) | herbicidal effect rating, CYPSE ([3]; 0.2500 kg/ha) | herbicidal effect rating, CYPSE ([3]; 0.5000 kg/ha) | herbicidal effect rating, ORYSAT (rice tolerance) ([11]; 0.0625 kg/ha) | herbicidal effect rating, ORYSAT (rice tolerance) ([11]; 0.1250 kg/ha) | herbicidal effect rating, ORYSAT (rice tolerance) ([12]; Rate 0.1250 kg/ha) | herbicidal effect rating, ORYSAT (rice tolerance) ([12]; Rate 0.2500 kg/ha) | herbicidal effect rating, ORYSAT (rice tolerance) ([12]; Rate 0.5000 kg/ha)
4.0: herbicidal effect rating, SAGPY ([5]; 0.1250 kg/ha) | herbicidal effect rating, SAGPY ([10]; Rate 0.2500 kg/ha) | herbicidal effect rating, ORYSAT (rice tolerance) ([11]; 0.0313 kg/ha) | herbicidal effect rating, ORYSAT (rice tolerance) ([12]; Rate 0.0313 kg/ha) | herbicidal effect rating, ORYSAT (rice tolerance) ([12]; Rate 0.0625 kg/ha)
0.0: herbicidal effect rating, SAGPY ([5]; 0.0313 kg/ha) | herbicidal effect rating, ECHORC ([6]; Rate 0.0313 kg/ha) | herbicidal effect rating, CYPSE ([8]; Rate 0.0313 kg/ha) | herbicidal effect rating, CYPSE ([8]; Rate 0.0625 kg/ha) | herbicidal effect rating, SAGPY ([10]; Rate 0.0313 kg/ha) | herbicidal effect rating, SAGPY ([10]; Rate 0.0625 kg/ha) | herbicidal effect rating, SAGPY ([10]; Rate 0.1250 kg/ha)
2.0: herbicidal effect rating, SAGPY ([5]; 0.0625 kg/ha) | herbicidal effect rating, ECHORC ([6]; Rate 0.0625 kg/ha) | herbicidal effect rating, CYPSE ([8]; Rate 0.5000 kg/ha)
